Measurements from patent publication US20250099420A1, “SMALL MOLECULE MODULATORS OF GPR139 COMPLEX” (University of Florida Research Foundation, Incorporated, priority 2022, published 2025).
Where two headings read alike, the source gives them in different places.

How the values were obtained:
parental HEK cells = assay: HEK parental Agonist Counterscreen Assay (non-transfected cells); assay type: cell-based; conditions: for Averaged Max % Response (±St. Dev.): activity relative to known control
Source text: The high control for the agonist counterscreen was Forskolin not acetylcholine.

GPR139 = target: T1, GPR139 (Homo sapiens, UniProt Q6DWJ6); assay: GPR139 Agonist titration / agonist counterscreen assay (calcium detection, HEK-GPR139 cells); assay type: cell-based; parameters: expressed in transfected cells; host or cells: HEK Aequorin cells, Maxcyte transient transfection; conditions: GPR139 Agonist Activity; for EC50: read-out: EC50; for Averaged Max % Response (±St. Dev.): activity relative to known control
T1 sequence (Q6DWJ6 1-353): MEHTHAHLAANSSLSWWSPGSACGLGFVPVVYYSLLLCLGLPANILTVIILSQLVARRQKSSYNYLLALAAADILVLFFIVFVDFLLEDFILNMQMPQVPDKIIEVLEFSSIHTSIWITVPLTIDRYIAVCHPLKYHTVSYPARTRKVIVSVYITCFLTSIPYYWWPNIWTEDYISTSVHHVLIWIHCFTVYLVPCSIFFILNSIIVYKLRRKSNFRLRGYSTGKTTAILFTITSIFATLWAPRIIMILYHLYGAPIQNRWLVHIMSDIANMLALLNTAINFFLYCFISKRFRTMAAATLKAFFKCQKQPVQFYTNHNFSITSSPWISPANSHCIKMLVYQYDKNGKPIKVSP
Procedure: GPR activity was assessed using a calcium detection assay. […] Negative control samples were treated with DMSO. […] Intracellular calcium was measured using Calcium 5.

[1] = Homo sapiens, HEK293, HEK Agonist Activity section of Table 4 (parental HEK counterscreen)
[2] = values printed in E-notation without unit

| SMILES | Lipophilic Efficiency (logD) (parental HEK cells; HEK Agonist Activity section) | Lipophilic Efficiency (logP) (parental HEK cells; HEK Agonist Activity section) | Averaged Max % Response (±St. Dev.) (parental HEK cells; HEK Agonist Activity section) [%] | EC50 (parental HEK cells; [1]) [µM] | Efficiency Ligand (GPR139) | Hill Slope (GPR139) | Lipophilic Efficiency (logD) (GPR139) | Lipophilic Efficiency (logP) (GPR139) | EC50 (GPR139; HEK-GPR139 cells) [µM] | Averaged Max % Response (±St. Dev.) (GPR139) [%] | Lipophilic Efficiency (logD) (GPR139; based on logD) | Lipophilic Efficiency (logP) (GPR139; based on logP) | Hill Slope (GPR139; fitted dose-response curve) | Efficiency Ligand (GPR139; ligand efficiency) | EC50 (GPR139; [2]) [µM] | EC50 (parental HEK cells; HEK Agonist Activity section of Table 4 (parental HEK counterscreen)) [µM] | Lipophilic Efficiency (logD) (parental HEK cells; HEK Agonist Activity) | Lipophilic Efficiency (logP) (parental HEK cells; HEK Agonist Activity) | Averaged Max % Response (±St. Dev.) (parental HEK cells; HEK Agonist Activity) [%] | EC50 (parental HEK cells; Homo sapiens, HEK293, HEK Agonist Activity, parental non-transfected HEK cells) [µM] |
| --- | --- | --- | --- | --- | --- | --- | --- | --- | --- | --- | --- | --- | --- | --- | --- | --- | --- | --- | --- | --- |
| CC(C)C(=O)NNC(=O)C(C)Oc1ccc(Cl)cc1Cl (centres unmarked) [SR-01000361172] | 1.97 | 1.93 | 2.50 ± 11.74 | > 14.1 | 0.40 | 1.48 | 2.81 | 2.78 | 2 | 91.50 ± 11.81 | – | – | – | – | – | – | – | – | – | – |
| COc1ccc(CC(=O)NNC(=O)C(C)Oc2ccc(Cl)cc2Cl)cc1 (centres unmarked) [SR-01000361779] | 1.53 | 1.50 | 9.57 ± 4.06 | > 14.1 | – | – | – | – | – | 89.14 ± 2.93 | 3.38 | 3.35 | 0.85 | 0.36 | 0.197 | – | – | – | – | – |
| O=C(COc1ccc2ccccc2c1)NNC(=O)c1cccc([N+](=O)[O-])c1 [SR-01000362228] | 2.17 | 2.17 | −0.15 ± 6.76 | – | 0.30 | 1.38 | 3.11 | 3.10 | 1.6 | 84.08 ± 9.93 | – | – | – | – | – | > 14.1 | – | – | – | – |
| Cc1ccc(S(=O)(=O)NC(=O)NC(C)Cc2ccccc2)cc1 (centres unmarked) [SR-01000362293] | – | – | – | – | – | – | – | – | – | 100.19 ± 16.30 | 5.01 | 4.07 | 1.02 | 0.46 | 0.0335 | – | 2.39 | 1.45 | −7.08 ± 3.92 | > 14.1 |
| COc1cccc(COC(=O)NC(C)C2COc3ccccc3O2)c1 (centres unmarked) [SR-01000362527] | 1.68 | 1.68 | 12.25 ± 2.76 | > 14.1 | 0.34 | 0.88 | 2.98 | 2.98 | 0.701 | 96.08 ± 11.27 | – | – | – | – | – | – | – | – | – | – |
| C#CC1=C(CCCc2ccc(CC)cc2)CC(CCc2ccccc2CC)=C1 [SR-01000363853] | 1.79 | 1.79 | −6.20 ± 7.21 | > 14.1 | 0.29 | 0.77 | 2.73 | 2.73 | – | 87.50 ± 15.37 | – | – | – | – | – | – | – | – | – | – |
| Cc1ccc(CNc2nc3ccccc3n2CCN2CCOCC2)cc1 [SR-01000364205] | 1.29 | 1.08 | −1.19 ± 1.27 | > 14.1 | 0.33 | 1.55 | 2.50 | 2.29 | – | 94.68 ± 16.83 | – | – | – | – | – | – | – | – | – | – |
